{"source": "patent US20170137417A1", "about": "(priority 2014, published 2017)", "settings": "Log P, [a] LC-UV, acidic range", "experimental": "Measurement of Log P values was performed according to EEC directive 79/831 Annex V.A8 by HPLC (High Performance Liquid Chromatography) on reversed phase columns with the following methods:\n[a] Log P value is determined by measurement of LC-UV, in an acidic range, with 0.1% formic acid in water and acetonitrile as eluent (linear gradient from 10% acetonitrile to 95% acetonitrile).\nCalibration was done with straight-chain alkan2-ones (with 3 to 16 carbon atoms) with known Log P values (measurement of Log P values using retention times with linear interpolation between successive alkanones).", "data": [{"smiles": "C#CCOc1ccc(F)c(F)c1C1CC(c2csc(C3CCN(C(=O)Nc4cc(C)ccc4C)CC3)n2)=NO1", "note": "(stereo not shown) [Example I-3]", "values": [{"measurement": "chromatographic logP", "value": 3.45}]}]}
